Results taken from ChEMBL document CHEMBL1201862, “PubChem BioAssay data set” (2004).
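Results reflect a 48-hour exposure of cells in 96-well plates to compound at five concentrations. GI50 = concentration required for 50% inhibition of growth.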 Calls of active or inactive are those of the source. No stated cut-off is given here; in the data, active = GI50 up to about 1.1 µM and inactive = higher.

Tests used:
Test in all cases: NCI anticancer screen, dose series, 48 h
PC-3 = test system: PC-3
HOP-92 = test system: HOP-92
A549 = test system: A549
CAKI-1 = test system: CAKI-1
RXF 393 = test system: RXF 393
SN12C = test system: SN12C
OVCAR-3 = test system: OVCAR-3
HCC 2998 = test system: HCC 2998
TK-10 = test system: TK-10
CCRF-CEM = test system: CCRF-CEM
NCI-H460 = test system: NCI-H460
OVCAR-5 = test system: OVCAR-5
NCI-H522 = test system: NCI-H522
MCF7 = test system: MCF7
OVCAR-4 = test system: OVCAR-4
MOLT-4 = test system: MOLT-4
UO-31 = test system: UO-31
DU-145 = test system: DU-145
IGROV-1 = test system: IGROV-1
NCI-H23 = test system: NCI-H23

Measured: GI50

CCOC(=O)c1c(C)nc2c3ccccc3c(C#N)c(C)n12
inactive: PC-3 > 100 µM | HOP-92 58.7 µM | A549 50.1 µM | CAKI-1 79.3 µM | RXF 393 33.4 µM | SN12C > 100 µM | OVCAR-3 > 100 µM | HCC 2998 > 100 µM | TK-10 > 100 µM | CCRF-CEM > 100 µM | NCI-H460 49.4 µM | OVCAR-5 88.7 µM | NCI-H522 23 µM | MCF7 > 100 µM | OVCAR-4 94 µM | MOLT-4 > 100 µM | UO-31 15.6 µM | DU-145 74.8 µM | IGROV-1 23 µM

Cc1c(C#N)c2ccccc2c2nc3ccccc3n12
inactive: PC-3 > 100 µM | HOP-92 > 100 µM | A549 93.1 µM | CAKI-1 67.9 µM | RXF 393 > 100 µM | SN12C 63.2 µM | OVCAR-3 > 100 µM | HCC 2998 64.3 µM | TK-10 > 100 µM | CCRF-CEM > 100 µM | NCI-H460 27.7 µM | OVCAR-5 > 100 µM | NCI-H522 16.4 µM | MCF7 50.9 µM | OVCAR-4 38.4 µM | MOLT-4 47.5 µM | UO-31 11.7 µM | DU-145 43.2 µM | IGROV-1 31.9 µM

COc1ccc(/C=C2\N=C(N3CCOCC3)NC2=O)cc1
inactive: PC-3 > 100 µM | HOP-92 > 100 µM | A549 > 100 µM | CAKI-1 > 100 µM | RXF 393 > 100 µM | SN12C > 100 µM | OVCAR-3 > 100 µM | HCC 2998 > 100 µM | TK-10 > 100 µM | CCRF-CEM > 100 µM | OVCAR-5 > 100 µM | NCI-H522 > 100 µM | NCI-H23 > 100 µM | MCF7 > 100 µM | OVCAR-4 > 100 µM | MOLT-4 > 100 µM | UO-31 > 100 µM | DU-145 > 100 µM | IGROV-1 > 100 µM

Nc1cccc2cc(S(=O)(=O)Nc3ccc(C(=O)O)cc3)ccc12
inactive: PC-3 > 100 µM | HOP-92 > 100 µM | A549 > 100 µM | CAKI-1 > 100 µM | RXF 393 > 100 µM | SN12C > 100 µM | OVCAR-3 > 100 µM | HCC 2998 > 100 µM | TK-10 > 100 µM | CCRF-CEM > 100 µM | NCI-H460 > 100 µM | OVCAR-5 > 100 µM | NCI-H522 > 100 µM | NCI-H23 > 100 µM | MCF7 > 100 µM | OVCAR-4 > 100 µM | UO-31 > 100 µM | DU-145 > 100 µM | IGROV-1 > 100 µM

Cc1ccc2c(c1)CN(C(=O)CCC(=O)OCc1ccccc1)c1ccc(C)cc1CN2C(=O)CCC(=O)OCc1ccccc1
inactive: PC-3 > 100 µM | HOP-92 82.2 µM | A549 > 100 µM | CAKI-1 > 100 µM | RXF 393 > 100 µM | SN12C > 100 µM | OVCAR-3 > 100 µM | HCC 2998 > 100 µM | TK-10 > 100 µM | CCRF-CEM > 100 µM | NCI-H460 > 100 µM | OVCAR-5 > 100 µM | NCI-H522 > 100 µM | NCI-H23 > 100 µM | MCF7 9.25 µM | OVCAR-4 > 100 µM | MOLT-4 > 100 µM | DU-145 > 100 µM | IGROV-1 > 100 µM

CC(C)=C[C@H]1C[C@H](C)[C@H]2CC[C@H](C)c3c2c1c(C)c1ncoc31
inactive: PC-3 17 µM | HOP-92 16.6 µM | A549 14.9 µM | CAKI-1 18.7 µM | RXF 393 11.9 µM | SN12C 19.5 µM | OVCAR-3 15.1 µM | HCC 2998 20 µM | TK-10 17.4 µM | CCRF-CEM 17.7 µM | NCI-H460 18.4 µM | OVCAR-5 16 µM | NCI-H522 16 µM | MCF7 15 µM | OVCAR-4 19.2 µM | MOLT-4 14.1 µM | UO-31 17.6 µM | DU-145 18 µM | IGROV-1 13.9 µM
